In patent US6875594B2, “Methods of ligating expressed proteins” (The Rockefeller University, priority 1997, dated 2005):

Target: AsiA (Enterobacteria phage T4, UniProt P32267)
Details: His-tagged σ fragment on Ni2+-NTA beads, imidazole elution
Experimental: The complementary experiment was done using wild type, untagged AsiA. Instead, a synthetic hexahistidine tag was chemically ligated to the N-terminus of σ568-600 as described herein. AsiA and His-tagged σ fragment were loaded on Ni^2+NTA beads, the beads were washed and eluted with increasing concentrations of imidazole in the buffer.
100 μl reactions contained 15 μl of Ni^2+-NTA agarose (Qiagen), 50-100 pmol σ^70 or σ^70 derivative, 200 pmol AsiAHis, 20 mM Tris-HCl, pH 7.9, 100 mM KCl, 10 mM MgCl2. Reactions were preincubated for 15 min at room temperature, after which the beads were pelleted by brief centrifugation and the supernatant, containing the unbound material was removed. The beads were then washed three times with the same buffer containing 10 mM imidazole, pH 8.0, resuspended in 50 μl of the buffer containing 100 mM imidazole and incubated for additional 15 min at room temperature. The supernatant containing the bound material was then withdrawn. Aliquots of the reactions were then analyzed on 8-25% Phast gels (Pharmacia) and silver stained.

Chain of AsiA (P32267 whole entry, the tested form may be a part): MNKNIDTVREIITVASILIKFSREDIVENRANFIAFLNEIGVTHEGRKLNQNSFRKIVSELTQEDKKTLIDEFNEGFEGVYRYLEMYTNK

## His6-Cys-[SCH2]-aminocaproate-σ568-600 [His-tagged σ568-600]
  interaction with wild type, untagged AsiA: strong interaction
